Measured values from patent US10633386B2, “BET protein degraders” (THE REGENTS OF THE UNIVERSITY OF MICHIGAN, priority 2016, dated 2020).

Tests used:
[1] = system: MDA-MB-231; experiment: Cell growth inhibition (CellTiter-Glo), MDA-MB-231; format: cell-based, human; settings: MDA-MB-231 cells, 4 days
Experimental: (§1) Cell growth inhibitory activity of representative BET bromodomain degraders was determined using CellTiter-Glo® Luminescent Cell Viability Assay. Cells were seeded in 384-well white opaque cell culture plates at a density of 2,000 cells/well with serially diluted compounds and incubated at 37° C. in an atmosphere of 95% air and 5% CO2 for 4 days. Cell viability was determined using the CellTiter-Glo® Luminescent Cell Viability Assay Kit (Promega, Madison, Wis.) according to the manufacture's instruction. Briefly, a volume of CellTiter-Glo® Reagent equal to the volume of cell culture medium was added to each well, and then the plates were incubated at room temperature for 10-20 minutes. The luminescent signal was measured using a Tecan Infinite M1000 multimode microplate reader (Tecan, Morrisville, N.C.). The half maximal inhibitory concentration (IC50) was calculated using the GraphPad Prism 5 software (GraphPad Software, La Jolla, Calif.).

[2] = system: MOLM-13; experiment: Cell growth inhibition (CellTiter-Glo), MOLM-13; format: cell-based; settings: MOLM-13 cells, 4 days
Experimental: as §1

SMILES	IC50 ([1]; Homo sapiens, MDA-MB-231, 96 h)	IC50 ([2]; Homo sapiens, MOLM-13, 96 h)	IC50 [2]	IC50 [1]
CCn1nc(C2CC2)cc1Nc1nc(C(=O)NCCCOCCOCCOCCCNC(=O)CNc2cccc3c2C(=O)N(C2CCC(=O)NC2=O)C3=O)nc2[nH]c3cc(-c4c(C)noc4C)c(OC)cc3c12 (stereo not shown) [Cpd. No. 3]	94.8 nM	18.2 nM		
CCn1nc(C2CC2)cc1Nc1nc(CNCCCOCCOCCOCCCNc2cccc3c2C(=O)N(C2CCC(=O)NC2=O)C3=O)nc2[nH]c3cc(-c4c(C)noc4C)c(OC)cc3c12 (stereo not shown) [compound 20]	3.2 nM	0.9 nM		
CCn1nc(C2CC2)cc1Nc1nc(C(=O)NCCCOCCOCCOCCCNC(=O)COc2cccc3c2C(=O)N(C2CCC(=O)NC2=O)C3=O)nc2[nH]c3cc(-c4c(C)noc4C)c(OC)cc3c12 (stereo not shown) [Cpd. No. 2]	75.6 nM	16.3 nM		
CCn1nc(C2CC2)cc1Nc1nc(C(=O)NCCCNc2cccc3c2C(=O)N(C2CCC(=O)NC2=O)C3=O)nc2[nH]c3cc(-c4c(C)noc4C)c(OC)cc3c12 (stereo not shown) [Cpd. No. 8]	57.6 nM	6.3 nM		
CCn1nc(C2CC2)cc1Nc1nc(C(=O)NCCCCNc2cccc3c2CN(C2CCC(=O)NC2=O)C3=O)nc2[nH]c3cc(-c4c(C)noc4C)c(OC)cc3c12 (stereo not shown) [compound 66]	275 nM	47.3 nM		
CCn1nc(C2CC2)cc1Nc1nc(CNCCCCNc2cccc3c2C(=O)N(C2CCC(=O)NC2=O)C3=O)nc2[nH]c3cc(-c4c(C)noc4C)c(OC)cc3c12 (stereo not shown) [compound 17]	330 nM	115 nM		
CCn1nc(C2CC2)cc1Nc1nc(CNCCCOCCCCOCCCNc2cccc3c2C(=O)N(C2CCC(=O)NC2=O)C3=O)nc2[nH]c3cc(-c4c(C)noc4C)c(OC)cc3c12 (stereo not shown) [compound 21]	543 nM	84.6 nM		
CCn1nc(C2CC2)cc1Nc1nc(C(=O)NCCOCCOCCC(=O)Nc2cccc3c2CN(C2CCC(=O)NC2=O)C3=O)nc2[nH]c3cc(-c4c(C)noc4C)c(OC)cc3c12 (stereo not shown) [Cpd. No. 63]	231 nM	41.5 nM		
CCn1nc(C2CC2)cc1Nc1nc(COCCCCNc2cccc3c2C(=O)N(C2CCC(=O)NC2=O)C3=O)nc2[nH]c3cc(-c4c(C)noc4C)c(OC)cc3c12 (stereo not shown) [compound 18]	5.4 nM	2.9 nM		
CCn1nc(C2CC2)cc1Nc1nc(C(=O)NCCOCCOCCOCCOCCNc2cccc3c2CN(C2CCC(=O)NC2=O)C3=O)nc2[nH]c3cc(-c4c(C)noc4C)c(OC)cc3c12 (stereo not shown) [compound 25]	25.1 nM	3.5 nM		
CCn1nc(C2CC2)cc1Nc1nc(C(=O)NCCCOCCOCCOCCNc2cccc3c2CN(C2CCC(=O)NC2=O)C3=O)nc2[nH]c3cc(-c4c(C)noc4C)c(OC)cc3c12 (stereo not shown) [compound 68]	4.1 nM	1.2 nM		
CCn1nc(C2CC2)cc1Nc1nc(C(=O)NCCOCCOCCOCCOc2cccc3c2C(=O)N(C2CCC(=O)NC2=O)C3=O)nc2[nH]c3cc(-c4c(C)noc4C)c(OC)cc3c12 (stereo not shown) [Cpd. No. 5]	50 nM	6.9 nM		
CCn1nc(C2CC2)cc1Nc1nc(C(=O)NCCOCCOCCOCCCc2cccc3c2C(=O)N(C2CCC(=O)NC2=O)C3=O)nc2[nH]c3cc(-c4c(C)noc4C)c(OC)cc3c12 (stereo not shown) [Cpd. No. 61]	69.6 nM	1.5 nM		
CCn1nc(C2CC2)cc1Nc1nc(C(=O)NCCOCCOCCOCCC(=O)Nc2cccc3c2CN(C2CCC(=O)NC2=O)C3=O)nc2[nH]c3cc(-c4c(C)noc4C)c(OC)cc3c12 (stereo not shown) [Cpd. No. 64]	98.7 nM	23.6 nM		
CCn1nc(C2CC2)cc1Nc1nc(C(=O)NCCCOCCOCCNc2cccc3c2CN(C2CCC(=O)NC2=O)C3=O)nc2[nH]c3cc(-c4c(C)noc4C)c(OC)cc3c12 (stereo not shown) [compound 69]	16.1 nM	2.9 nM		
CCn1nc(C2CC2)cc1Nc1nc(C(=O)NCCCCCCNc2cccc3c2C(=O)N(C2CCC(=O)NC2=O)C3=O)nc2[nH]c3cc(-c4c(C)noc4C)c(OC)cc3c12 (stereo not shown) [compound 11]	8 nM	1.6 nM		
CCn1nc(C2CC2)cc1Nc1nc(C(=O)NCCOCCOCCOCCOCCCc2cccc3c2CN(C2CCC(=O)NC2=O)C3=O)nc2[nH]c3cc(-c4c(C)noc4C)c(OC)cc3c12 (stereo not shown) [compound 70]	41 nM	8.5 nM		
CCn1nc(C2CC2)cc1Nc1nc(C(=O)NCCOCCOCCOCCOCCOCCOCCOCCNc2cccc3c2C(=O)N(C2CCC(=O)NC2=O)C3=O)nc2[nH]c3cc(-c4c(C)noc4C)c(OC)cc3c12 (stereo not shown) [compound 16]	128 nM	10.2 nM		

SMILES	IC50 ([1]; Homo sapiens, MDA-MB-231, 96 h)	IC50 ([2]; Homo sapiens, MOLM-13, 96 h)	IC50 [2]	IC50 [1]
CCn1nc(C2CC2)cc1Nc1nc(C(=O)NCCCOCCOCCOCC#Cc2cccc3c2CN(C2CCC(=O)NC2=O)C3=O)nc2[nH]c3cc(-c4c(C)noc4C)c(OC)cc3c12 (stereo not shown) [compound 72]	4.2 nM	1.2 nM		
CCn1nc(C2CC2)cc1Nc1nc(C(=O)NCCOCCOCCOCCNc2cccc3c2CN(C2CCC(=O)NC2=O)C3=O)nc2[nH]c3cc(-c4c(C)noc4C)c(OC)cc3c12 (stereo not shown) [compound 24]	74.9 nM	12.1 nM		
CCn1nc(C2CC2)cc1Nc1nc(C(=O)NCCCCCNc2cccc3c2C(=O)N(C2CCC(=O)NC2=O)C3=O)nc2[nH]c3cc(-c4c(C)noc4C)c(OC)cc3c12 (stereo not shown) [compound 10]	4.8 nM	0.9 nM		
CCn1nc(C2CC2)cc1Nc1nc(C(=O)NCCOCCOCCNc2cccc3c2CN(C2CCC(=O)NC2=O)C3=O)nc2[nH]c3cc(-c4c(C)noc4C)c(OC)cc3c12 (stereo not shown) [compound 23]	83.4 nM	16.7 nM		
CCn1nc(C2CC2)cc1Nc1nc(C(=O)NCCOCCCc2cccc3c2CN(C2CCC(=O)NC2=O)C3=O)nc2[nH]c3cc(-c4c(C)noc4C)c(OC)cc3c12 (stereo not shown) [Cpd. No. 59]	24.4 nM	0.64 nM		
CCn1nc(C2CC2)cc1Nc1nc(C(=O)NCCCOCCCCOCCCNc2cccc3c2C(=O)N(C2CCC(=O)NC2=O)C3=O)nc2[nH]c3cc(-c4c(C)noc4C)c(OC)cc3c12 (stereo not shown) [compound 15]	1.7 nM	0.7 nM		
CCn1nc(C2CC2)cc1Nc1nc(C(=O)NCCOCCOCCNc2cccc3c2C(=O)N(C2CCC(=O)NC2=O)C3=O)nc2[nH]c3cc(-c4c(C)noc4C)c(OC)cc3c12 (stereo not shown) [Cpd. No. 13]	267 nM		8 nM	
CCn1nc(C2CC2)cc1Nc1nc(C(=O)NCCOCCCc2cccc3c2C(=O)N(C2CCC(=O)NC2=O)C3=O)nc2[nH]c3cc(-c4c(C)noc4C)c(OC)cc3c12 (stereo not shown) [Cpd. No. 62]	24.7 nM	3.4 nM		
CCn1nc(C2CC2)cc1Nc1nc(C(=O)NCCCCCc2cccc3c2C(=O)N(C2CCC(=O)NC2=O)C3=O)nc2[nH]c3cc(-c4c(C)noc4C)c(OC)cc3c12 (stereo not shown) [Cpd. No. 60]	11.2 nM	1.2 nM		
CCn1nc(C2CC2)cc1Nc1nc(C(=O)NCCOCCOCCOCCNc2cccc3c2C(=O)N(C2CCC(=O)NC2=O)C3=O)nc2[nH]c3cc(-c4c(C)noc4C)c(OC)cc3c12 (stereo not shown) [compound 14]	33 nM	1.2 nM		
CCn1nc(C2CC2)cc1Nc1nc(C(=O)NCCOCCNc2cccc3c2C(=O)N(C2CCC(=O)NC2=O)C3=O)nc2[nH]c3cc(-c4c(C)noc4C)c(OC)cc3c12 (stereo not shown) [Cpd. No. 12]	109 nM	17.8 nM		
CCn1nc(C2CC2)cc1Nc1nc(C(=O)NCCOCCOCCNc2cccc3c2C(=O)N(C2CCC(=O)NC2=O)C3=O)nc2[nH]c3cc(-c4c(C)noc4C)c(OC)cc3c12 (stereo not shown) [compound 65]			47.1 nM	438 nM
CCn1nc(C2CC2)cc1Nc1nc(C(=O)NCCCCNC(=O)COc2cccc3c2C(=O)N(C2CCC(=O)NC2=O)C3=O)nc2[nH]c3cc(-c4c(C)noc4C)c(OC)cc3c12 (stereo not shown) [Cpd. No. 1]	49.5 nM	12.2 nM		
CCn1nc(C2CC2)cc1Nc1nc(C(=O)NCCNc2cccc3c2C(=O)N(C2CCC(=O)NC2=O)C3=O)nc2[nH]c3cc(-c4c(C)noc4C)c(OC)cc3c12 (stereo not shown) [Cpd. No. 7]	453 nM	65 nM		
CCn1nc(C2CC2)cc1Nc1nc(C(=O)NCCCOCCOCCOCCCNc2cccc3c2CN(C2CCC(=O)NC2=O)C3=O)nc2[nH]c3cc(-c4c(C)noc4C)c(OC)cc3c12 (stereo not shown) [compound 67]	2 nM	0.7 nM		
CCn1nc(C2CC2)cc1Nc1nc(C(=O)NCCOCCNc2cccc3c2CN(C2CCC(=O)NC2=O)C3=O)nc2[nH]c3cc(-c4c(C)noc4C)c(OC)cc3c12 (stereo not shown) [compound 22]	63.8 nM	12.4 nM		
CCn1nc(C2CC2)cc1Nc1nc(CNCCCCNc2cccc3c2CN(C2CCC(=O)NC2=O)C3=O)nc2[nH]c3cc(-c4c(C)noc4C)c(OC)cc3c12 (stereo not shown) [compound 19]	1420 nM	379 nM		
